Measured values taken from BindingDB's records for doi:10.7270/Q280511V (University of Pittsburgh, 2008).

Biological target: Serine/threonine-protein kinase PLK1 (Homo sapiens, UniProt P53350)
Experiment: PLK1 polo-box domain peptide-binding inhibitors, SAR follow-up, biochemical, fluorescence polarization, synthesized analogs, concentration response (AID 1057)

Sequence of Serine/threonine-protein kinase PLK1 (P53350 whole entry, the tested form may be a part): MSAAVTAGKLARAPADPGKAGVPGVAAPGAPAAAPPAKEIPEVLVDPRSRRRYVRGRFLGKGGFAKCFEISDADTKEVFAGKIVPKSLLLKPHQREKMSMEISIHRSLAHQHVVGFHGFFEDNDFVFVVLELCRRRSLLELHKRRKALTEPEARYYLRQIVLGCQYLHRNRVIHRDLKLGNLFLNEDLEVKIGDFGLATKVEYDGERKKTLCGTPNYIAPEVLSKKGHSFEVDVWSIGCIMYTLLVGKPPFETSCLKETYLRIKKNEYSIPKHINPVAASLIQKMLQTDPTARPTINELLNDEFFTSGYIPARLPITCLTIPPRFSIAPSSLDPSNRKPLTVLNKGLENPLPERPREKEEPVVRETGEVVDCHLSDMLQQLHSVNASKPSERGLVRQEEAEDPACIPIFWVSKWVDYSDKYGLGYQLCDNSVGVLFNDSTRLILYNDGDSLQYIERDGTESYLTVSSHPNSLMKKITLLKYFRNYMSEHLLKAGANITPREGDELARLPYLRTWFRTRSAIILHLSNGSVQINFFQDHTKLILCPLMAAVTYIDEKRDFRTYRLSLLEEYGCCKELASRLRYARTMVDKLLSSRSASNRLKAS

Structure (SMILES)	IC50
CCOC(=O)c1cccc(NC(=O)c2ccc(F)cc2F)c1 [3-[(2,4-difluorobenzoyl)amino]benzoic acid ethyl ester]	> 50 µM
CCOC(=O)c1ccc(NC(=O)c2c(NCc3ccccc3)[nH]c(=O)[nH]c2=O)cc1 [UPDDI-00398618]	> 50 µM
CCOc1ccc(NC(=O)c2c(O)[nH]c(=O)[nH]c2=O)cc1 [N-(4-ethoxyphenyl)-6-hydroxy-2,4-dioxo-1H-pyrimidine-5-carboxamide]	> 50 µM
CCOC(=O)c1ccccc1NC(=O)c1c(O)[nH]c(=S)[nH]c1=O	> 50 µM
CCCCOC(=O)c1ccc(NC(=O)c2c(O)[nH]c(=O)[nH]c2=O)cc1 [4-[[(6-hydroxy-2,4-dioxo-1H-pyrimidin-5-yl)-oxomethyl]amino]benzoic acid butyl ester]	> 50 µM
Cn1c(N)c(C(=O)Nc2ccccc2)c(=O)[nH]c1=O [UPDDI-00398616]	> 50 µM
Cn1c(N)c(S(=O)(=O)NCc2ccccc2)c(=O)n(C)c1=O [4-amino-1,3-dimethyl-2,6-dioxo-N-(phenylmethyl)-5-pyrimidinesulfonamide]	> 50 µM
CCOC(=O)c1ccc(NC(=O)c2c(N)n(C)c(=O)[nH]c2=O)cc1 [UPDDI-00294856]	> 50 µM
CCOC(=O)c1ccc(NS(=O)(=O)c2c(N)n(C)c(=O)n(C)c2=O)cc1 [4-[(4-amino-1,3-dimethyl-2,6-dioxo-5-pyrimidinyl)sulfonylamino]benzoic acid ethyl ester]	> 50 µM
CCOC(=O)c1ccc(NC(=O)c2ccc(F)cc2F)cc1 [4-[(2,4-difluorobenzoyl)amino]benzoic acid ethyl ester]	> 50 µM
CC(NNC(=O)c1ccncc1)=C1C(=O)NC(=O)NC1=O	> 50 µM
CCOC(=O)c1ccccc1NC(=O)c1ccc(F)cc1F [2-[(2,4-difluorobenzoyl)amino]benzoic acid ethyl ester]	> 50 µM
CCOC(=O)c1ccc(NC(=O)c2c(N)n(C)c(=O)n(C)c2=O)cc1 [4-[(4-amino-2,6-diketo-1,3-dimethyl-pyrimidine-5-carbonyl)amino]benzoic acid ethyl ester]	> 50 µM
O=C(Nc1ccccc1)c1c(O)[nH]c(=S)[nH]c1=O	> 50 µM
CCOC(=O)c1ccccc1NC(=O)c1c(O)[nH]c(=O)[nH]c1=O	> 50 µM
Cc1cccc(NNC=C2C(=O)NC(=S)NC2=O)c1 [5-[[2-(3-methylphenyl)hydrazinyl]methylidene]-2-sulfanylidene-1,3-diazinane-4,6-dione]	> 50 µM

Structure (SMILES)	IC50
CCOc1ccc(NC(=O)c2c(N)n(C)c(=O)[nH]c2=O)cc1	> 50 µM
CCOc1ccc(NC(=O)c2ccc(F)cc2F)cc1 [2,4-difluoro-N-p-phenetyl-benzamide]	> 50 µM
CCCCOC(=O)c1ccc(NC(=O)c2c(N)n(C)c(=O)[nH]c2=O)cc1 [4-[[(6-amino-1-methyl-2,4-dioxo-5-pyrimidinyl)-oxomethyl]amino]benzoic acid butyl ester]	> 50 µM
CCOC(=O)c1cccc(NC(=O)c2c(O)[nH]c(=O)[nH]c2=O)c1 [3-[[(6-hydroxy-2,4-dioxo-1H-pyrimidin-5-yl)-oxomethyl]amino]benzoic acid ethyl ester]	> 50 µM
CCCCOC(=O)c1ccc(NC(=O)c2ccc(F)cc2F)cc1 [4-[(2,4-difluorobenzoyl)amino]benzoic acid butyl ester]	> 50 µM
CCOC(=O)CCCCCNC(=O)C1C(=O)NC(=O)NC1=O [6-[[hydroxy-(2,4,6-triketohexahydropyrimidin-5-ylidene)methyl]amino]hexanoic acid ethyl ester]	> 50 µM
CCOC(=O)CCCCCNC(=O)c1ccc(F)cc1F [6-[(2,4-difluorobenzoyl)amino]hexanoic acid ethyl ester]	> 50 µM
CCOC(=O)c1cccc(NC(=O)c2c(NCc3ccccc3)[nH]c(=O)[nH]c2=O)c1 [ethyl 3-[[2,4-bis(oxidanylidene)-6-[(phenylmethyl)amino]-1H-pyrimidin-5-yl]carbonylamino]benzoate]	> 50 µM
CCOC(=O)c1ccc(NC(=O)c2c(N)n(Cc3ccccc3)c(=O)[nH]c2=O)cc1 [ethyl 4-[(6-amino-1-benzyl-2,4-dioxopyrimidine-5-carbonyl)amino]benzoate]	> 50 µM
CCOC(=O)c1ccc(NC(=O)c2c(O)[nH]c(=O)[nH]c2=O)cc1	> 50 µM
CCOC(=O)c1cccc(NC(=O)c2c(N)n(C)c(=O)[nH]c2=O)c1 [UPDDI-00398617]	> 50 µM
O=C(Nc1ccccc1)c1ccc(F)cc1F [2,4-bis(fluoranyl)-N-phenyl-benzamide]	> 50 µM
Cc1ccc(NC(=O)c2ccc(F)cc2F)cc1 [2,4-bis(fluoranyl)-N-(4-methylphenyl)benzamide]	> 50 µM
CCOC(=O)c1ccccc1NC(=O)c1c(N)n(C)c(=O)[nH]c1=O [ethyl 2-[[6-azanyl-1-methyl-2,4-bis(oxidanylidene)pyrimidin-5-yl]carbonylamino]benzoate]	> 50 µM
O=C(Nc1ccccc1)c1c(O)[nH]c(=O)[nH]c1=O	> 50 µM
